These results are taken from US10899754B2, “Modulators of indoleamine 2,3-dioxygenase” (GLAXOSMITHKLINE INTELLECTUAL PROPERTY DEVELOPMENT LIMITED, priority 2016, dated 2021).

Series [1] relates to naive CD4+CD25- T cells. Conditions: co-culture with DCs; cited from earlier work.
In series [2] the test system is PAN02 pancreatic cells. Conditions: orally dosed, cited from earlier work.
For series [3], the system named is human peripheral blood mononuclear cells (PBMC). Kind of series: PBMC cytotoxicity assay (CellTiter-Glo). The format is cell-based. To be noted: 2 days, pCC50. The procedure, abridged:
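Human PBMC (50,000 cells/well) stimulated with IFN-γ 100 ng/ml and LPS 50 ng/ml were exposed to 11-point 3-fold compound dilutions for 2 days at 37 °C, 5% CO2. Viability read by CellTiter-Glo ATP luminescence and normalized to no-cell and stimulated-DMSO controls. XC50 derived by four-parameter fit.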

Series [4] has as its target T1, ePL tagged IDO1 (Homo sapiens, UniProt P14902).
T1 construct: expressed in transfected cells; host or cells: HeLa cells transduced with BacMam virus
Kind of series: CETSA (Cellular Thermal Shifting assay) in Hela cells. In kind it is binding. Conditions: BacMam ePL tagged IDO1, 3 hours at 37° C., heated at 53° C. for 3 min. How it is done: Cellular Thermal Shifting assays were used to directly monitor the ligand binding to target proteins in cells. Hela cells were transduced with BacMam virus expressing ePL tagged IDO1 overnight. The cells were then plated over the compounds for 3 hours at 37° C. in cell culture medium containing 1% FBS. The plates were then sealed and heated at 53° C. for 3 min. InCell Hunter reagents were added and luminescence was read in 90 min.

The target in series [5] is T2, indoleamine 2, 3-dioxygenase (IDO1) (Homo sapiens, UniProt P14902). Nature of the series: IDO1 PBMC RapidFire MS assay (kynurenine detection by mass spectrometry). In kind it is cell-based. Also on record: to induce the expression of indoleamine 2, 3-dioxygenase (IDO1); host or cells: human PBMC stimulated with IFN-gamma and LPS. Conditions: human PBMC stimulated with IFN-γ and LPS, 2 days; for IC50: pIC50, read-out: PBMC PXC50 (converted). The procedure, abridged: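 PBMCs (50,000 cells/well) stimulated with IFN-γ 100 ng/ml plus LPS 50 ng/ml, treated with 11-point 3-fold compound series for 2 days at 37° C. Supernatant kynurenine measured by RapidFire MS, normalised to internal standard; parallel cytotoxicity by CellTiter-Glo luminescence; curves fitted for XC50.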
T2 sequence (P14902 whole entry): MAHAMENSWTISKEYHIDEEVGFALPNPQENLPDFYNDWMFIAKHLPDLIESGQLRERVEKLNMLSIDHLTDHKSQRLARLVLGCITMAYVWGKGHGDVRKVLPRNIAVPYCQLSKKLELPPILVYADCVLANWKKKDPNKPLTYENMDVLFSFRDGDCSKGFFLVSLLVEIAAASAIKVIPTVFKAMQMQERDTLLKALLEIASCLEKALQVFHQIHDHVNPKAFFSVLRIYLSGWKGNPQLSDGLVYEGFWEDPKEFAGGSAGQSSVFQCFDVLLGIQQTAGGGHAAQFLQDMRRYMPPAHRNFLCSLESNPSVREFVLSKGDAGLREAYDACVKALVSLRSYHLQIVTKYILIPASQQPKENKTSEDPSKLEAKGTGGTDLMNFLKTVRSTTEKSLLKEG

Series [6] deals with human epithelial HeLa cells. Kind of series: HeLa cytotoxicity assay (CellTiter-Glo). Conditions: pCC50. In kind it is cell-based. The procedure, abridged:
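HeLa cells (5,000/well) stimulated with 10 nM IFN-γ, exposed to 11-point 3-fold compound dilutions for 2 days at 37 °C; viability by CellTiter-Glo ATP luminescence. Normalized to cell-free (100% cytotoxicity) and stimulated-cell DMSO (0%) controls; four-parameter fit gives pCC50.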
(In general: ATP-based viability assays read luminescence as a measure of living cells.)

The target of series [7] is T2, indoleamine 2, 3-dioxygenase (IDO1). Kind of series: IDO1 HeLa RapidFire MS assay (kynurenine detection by mass spectrometry). In kind it is cell-based. Also on record: to induce the expression of indoleamine 2, 3-dioxygenase (IDO1). To be noted: HeLa cells, pIC50, read-out: IDO1_HELA_PXC50 (converted). The procedure, abridged:
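Compound potency reported as pIC50 from kynurenine/internal-standard ratio (RapidFire MS) in supernatant of IFN-γ-induced (10 nM) HeLa cells, 5,000 per well, after 2 days' treatment with 11-point dilutions. Cytotoxicity in the same format by luminescent ATP detection, reported as pCC50.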

Where two headings read alike, the source gives them in different places. A value given as a limit tells only on which side of the number the result lay.

T1 sequence (P14902 whole entry): as above

`NS(=O)(=O)NCCNc1nonc1C(=NO)Nc1ccc(F)c(Br)c1` [INCB204360, epacadostat]: the “Conversion of naive CD4+CD25- T cells into CD4+FoxP3+ Tregs” value in series [1] is “blocked the conversion”. Besides, the “Inhibition of tumor growth” value in series [2] (PAN02 pancreatic cells, immunocompetent mice) was “significant dose-dependent inhibition of tumor growth”. Moreover, the Effect against tumor entry in series [2] (same tumor (PAN02) implanted in immune-deficient mice) is given as “without effect”.
Consider `CC(C)CN(c1ccc([C@H](C)CC(=O)O)cc1Nc1ccc(Cl)nn1)C1CCOCC1` [Example 11, (R)-3-(3-((6-chloropyridazin-3-yl)amino)-4-(isobutyl(tetrahydro-2H-pyran-4-yl)amino)phenyl)butanoic Acid], for which the “PBMC TOX PXC50” value in series [3] is below 5. Further, the EC50 is 0.112 µM in series [4] (read-out: pXC50_1 (converted)) and 0.191 µM in series [4] (read-out: pXC50_2 (converted)). Also, the IC50 in series [5] was 0.001 µM.
With `CC(C)CN(CC(C)C)c1ccc(C2(CC(=O)O)CC2)cc1Nc1nc(C(F)(F)F)ns1` [Example 110, 2-(1-(4-(diisobutylamino)-3-((3-(trifluoromethyl)-1,2,4-thiadiazol-5-yl)amino)phenyl)cyclopropyl)acetic Acid], the “PBMC TOX PXC50” value in series [3] is 5.2. Also, in series [4], the pXC50_1 came to 6.89 and the pXC50_2 worked out at 6.86. Besides, in series [5] (pIC50), the “PBMC PXC50” value is 8.5.
In the case of `CC(C)CN(c1ccc([C@H](C)CC(=O)O)cc1Nc1nc(C(F)(F)F)ns1)[C@H]1CC[C@H](O)CC1` [Example 44, (R)-3-(4-(((1r,4R)-4-hydroxycyclohexyl) (isobutyl)amino)-3-((3-(trifluoromethyl)-1,2,4-thiadiazol-5-yl)amino)phenyl)butanoic Acid], in series [3], the “PBMC TOX PXC50” value is below 5. Besides, in series [4] (read-out: pXC50_1 (converted)), the EC50 is 0.0017 µM. In addition, the IC50 in series [5] is 0.000631 µM.
For `CO[C@H]1CC[C@@H](N(CC(C)C)c2ccc([C@H](C)CC(=O)O)cc2Nc2nc(C(F)(F)F)n[nH]2)CC1` [Example 51], in that order: below 5, 0.0017 µM and 0.00158 µM.
Turning to `CC(C)CN(c1ccc([C@H](C)CC(=O)O)cc1Nc1ccc(Cl)nc1)C1CCOCC1` [Example 6, (R)-3-(3-((6-chloropyridin-3-yl)amino)-4-(isobutyl(tetrahydro-2H-pyran-4-yl)amino)phenyl)butanoic Acid], the “PBMC TOX PXC50” value in series [3] was below 5. In addition, the EC50 in series [4] (read-out: pXC50_1 (converted)) is 0.0138 µM; in series [4] (read-out: pXC50_2 (converted)), 0.0209 µM. In addition, the IC50 in series [5] was 0.000631 µM.
With `CC(C)CN(c1ccc([C@H](C)CC(=O)O)cc1Nc1ccc(C#N)cn1)C1CCOCC1` [Example 16, (R)-3-(3-((5-cyanopyridin-2-yl)amino)-4-(isobutyl(tetrahydro-2H-pyran-4-yl)amino)phenyl)butanoic Acid], in series [3], the “PBMC TOX PXC50” value was below 5. The figures for the EC50 in series [4] (read-out: pXC50_1 (converted)) and in series [4] (read-out: pXC50_2 (converted)) were 0.257 µM and 0.316 µM, respectively. Also, the IC50 in series [5] is 0.00158 µM.
In series [6], `CC(C)CN(c1ccc(-c2ccccc2C(=O)NCCCCCN)cc1Nc1nc(C(F)(F)F)ns1)C1CCCCC1` [example 283, N-(5-aminopentyl)-4′-[cyclohexyl(2-methylpropyl)amino]-3′-{[3-(trifluoromethyl)-1,2,4-thiadiazol-5-yl]amino}-[1,1′-biphenyl]-2-carboxamide] had an HELA_IDO1_TOX_PXC50 below 5. The EC50 in series [4] (read-out: pXC50_1 (converted)) is above 100 µM. For the same molecule, in series [7], the IC50 was 5.01 µM.
In the case of `CC(C)CN(c1ccc(-c2cccnc2C(=O)O)cc1Nc1nc(C(F)(F)F)ns1)C1CCOCC1` [example 269, 3-{4-[(2-methylpropyl)(oxan-4-yl)amino]-3-{[3-(trifluoromethyl)-1,2,4-thiadiazol-5-yl]amino}phenyl}pyridine-2-carboxylic acid], the HELA_IDO1_TOX_PXC50 in series [6] was below 5. Also, in series [3], the “PBMC TOX PXC50” value is given as below 5. Besides, the figures for the IC50 in series [7] and in series [5] were 0.316 µM and 0.0316 µM, respectively.
`CC(C)CC(=O)N1CCC(N(CC(C)C)c2ccc([C@H](C)CC(=O)O)cc2Nc2nc(C(F)(F)F)ns2)CC1` [Example 67, (R)-3-(4-(isobutyl(1-(3-methylbutanoyl)piperidin-4-yl)amino)-3-((3-(trifluoromethyl)-1,2,4-thiadiazol-5-yl)amino)phenyl)butanoic Acid]: the “PBMC TOX PXC50” value in series [3] was below 5. Also, the figures for the EC50 in series [4] (read-out: pXC50_1 (converted)) and in series [4] (read-out: pXC50_2 (converted)) were 0.0724 µM and 0.0501 µM, respectively. In series [5], the IC50 is 0.002 µM.
For the molecule `CC(C)CN(c1ccc([C@H](C)CC(=O)O)cc1Nc1cnc(C(F)(F)F)nc1)C1CCOCC1` [Example 9, (R)-3-(4-(isobutyl(tetrahydro-2H-pyran-4-yl)amino)-3-((2-(trifluoromethyl)pyrimidin-5-yl)amino)phenyl)butanoic Acid], in series [6], the HELA_IDO1_TOX_PXC50 is on record as below 5. Moreover, the “PBMC TOX PXC50” value in series [3] was below 5. In addition, the IC50 is 0.00251 µM in series [7] and 0.001 µM in series [5].
With `COCCN(c1ccc(-c2ccccc2C(=O)O)cc1Nc1nc2ccccc2o1)C1CCCCC1` [example 284, 3′-[(1,3-benzoxazol-2-yl)amino]-4′-[cyclohexyl(2-methoxyethyl)amino]-[1,1′-biphenyl]-2-carboxylic acid], in series [6], the HELA_IDO1_TOX_PXC50 is given as below 5. Also, in series [3], the “PBMC TOX PXC50” value is below 5. The IC50 is 0.398 µM in series [7] and 0.2 µM in series [5].
As for `COCC(=O)N1CCC(N(CC(C)C)c2ccc([C@H](C)CC(=O)O)cc2Nc2nc(C(F)(F)F)ns2)CC1` [Example 72, (R)-3-(4-(isobutyl(1-(2-methoxyacetyl)piperidin-4-yl)amino)-3-((3-(trifluoromethyl)-1,2,4-thiadiazol-5-yl)amino)phenyl)butanoic Acid], the HELA_IDO1_TOX_PXC50 in series [6] is given as below 5. For the same molecule, in series [3], the “PBMC TOX PXC50” value is recorded as below 5. The values for the IC50 in series [7] and in series [5] were 0.0398 µM and 0.01 µM, respectively.
The molecule `CC(C)CN(c1ccc([C@H](C)CC(=O)O)cc1Nc1ccc(C(F)(F)F)cn1)C1CCCCC1` [Example 76, (R)-3-(4-(cyclohexyl(isobutyl)amino)-3-((5-(trifluoromethyl)pyridin-2-yl)amino)phenyl)butanoic Acid] gave an HELA_IDO1_TOX_PXC50 in series [6] below 5. In addition, the “PBMC TOX PXC50” value in series [3] is below 5. Also, the figures for the IC50 in series [7] and in series [5] were 0.00398 µM and 0.00251 µM, respectively.
`CC(C)CN(c1ccc([C@H](C)CC(=O)O)cc1Nc1nc(C(F)(F)F)ns1)C1CCN(S(C)(=O)=O)CC1` [Example 71] came in with an HELA_IDO1_TOX_PXC50 in series [6] below 5. In addition, the “PBMC TOX PXC50” value in series [3] is recorded as below 5. Besides, the IC50 in series [7] is 0.02 µM; in series [5], 0.00501 µM.
In series [6], `CC(C)CN(CC(C)C)c1ccc(-c2ccccc2C(=O)O)cc1Nc1nc(C2CC2)ns1` [example 288, 4′-[bis(2-methylpropyl)amino]-3′-[(3-cyclopropyl-1,2,4-thiadiazol-5-yl)amino]-[1,1′-biphenyl]-2-carboxylic acid] returned an HELA_IDO1_TOX_PXC50 below 5. Moreover, the “PBMC TOX PXC50” value in series [3] is below 5. Also, the IC50 in series [7] is 0.316 µM; in series [5], 0.1 µM.
`COc1ncc(Nc2cc([C@H](C)CC(=O)O)ccc2N(CC(C)C)C2CCOCC2)cn1` [Example 15, (R)-3-(4-(isobutyl(tetrahydro-2H-pyran-4-yl)amino)-3-((2-methoxypyrimidin-5-yl)amino)phenyl)butanoic Acid]: in series [6], the HELA_IDO1_TOX_PXC50 is on record as below 5. Moreover, in series [3], the “PBMC TOX PXC50” value was below 5. Further, the IC50 in series [7] was 0.00794 µM; in series [5], 0.00316 µM.
As for `CC(C)CN(c1ccc(C(C)CC(=O)O)cc1NC1=N[C@H](C)CO1)C1CCCCC1` (stereo partly drawn) [example 151, 3-{4-[cyclohexyl(2-methylpropyl)amino]-3-{[(4R)-4-methyl-4,5-dihydro-1,3-oxazol-2-yl]amino}phenyl}butanoic acid], the HELA_IDO1_TOX_PXC50 in series [6] is below 5. The “PBMC TOX PXC50” value in series [3] is below 5. Besides, the IC50 is 2 µM in series [7] and 2.51 µM in series [5].
